By fraction unbound is commonly meant the share of the substance not bound to proteins or other matrix. A lower fraction unbound goes with little free substance. The term AUC denotes concentration integrated over time. What is called Cmax is the peak of the concentration-time curve. As a reminder, the Vd is the apparent volume that relates the amount in the body to the concentration in plasma or blood. High values mean wide distribution into tissue, low ones little distribution into tissue. By clearance is commonly meant the volume of plasma or blood freed of the substance per unit of time. Low readings indicate inefficient removal, high ones efficient removal. As a reminder, the half-life is the time needed for the level to fall by half in the phase considered. For orientation: Tmax means the time from dosing to the highest level. Usually bioavailability stands for dose-corrected exposure relative to a reference, in per cent. The hepatocyte CLint is the rate of metabolic loss divided by the concentration. High values mean rapid turnover, low ones slow turnover.

Here are results for one compound from paper PMC12163657 (ACS Omega, 2025).

The target in one series is ERβ (Homo sapiens, UniProt Q92731). The series is described as follows: Reporter assay of gene transcription activity, ERβ. Format: cell-based. Background: In a reporter assay the amount or activity of a reporter protein is the signal.
A short description of series [1]: Plasma protein binding, rapid equilibrium dialysis, cyno plasma. Format: in vitro ADME, cynomolgus monkey.
Series [2] can be described thus: Plasma protein binding, rapid equilibrium dialysis, mouse plasma. It counts as in vitro ADME. The conditions noted are these: undiluted plasma.
The target of the next series is CYP 3A4 (Homo sapiens, UniProt P08684). The series is described as follows: CYP inhibition in human liver microsomes. It counts as in vitro ADME. For orientation: Microsomes from liver hold many membrane-bound enzymes, among them those of drug oxidation.
Series [3] addresses T1, ERα (Homo sapiens, UniProt P03372).
T1 sequence (P03372 1-595): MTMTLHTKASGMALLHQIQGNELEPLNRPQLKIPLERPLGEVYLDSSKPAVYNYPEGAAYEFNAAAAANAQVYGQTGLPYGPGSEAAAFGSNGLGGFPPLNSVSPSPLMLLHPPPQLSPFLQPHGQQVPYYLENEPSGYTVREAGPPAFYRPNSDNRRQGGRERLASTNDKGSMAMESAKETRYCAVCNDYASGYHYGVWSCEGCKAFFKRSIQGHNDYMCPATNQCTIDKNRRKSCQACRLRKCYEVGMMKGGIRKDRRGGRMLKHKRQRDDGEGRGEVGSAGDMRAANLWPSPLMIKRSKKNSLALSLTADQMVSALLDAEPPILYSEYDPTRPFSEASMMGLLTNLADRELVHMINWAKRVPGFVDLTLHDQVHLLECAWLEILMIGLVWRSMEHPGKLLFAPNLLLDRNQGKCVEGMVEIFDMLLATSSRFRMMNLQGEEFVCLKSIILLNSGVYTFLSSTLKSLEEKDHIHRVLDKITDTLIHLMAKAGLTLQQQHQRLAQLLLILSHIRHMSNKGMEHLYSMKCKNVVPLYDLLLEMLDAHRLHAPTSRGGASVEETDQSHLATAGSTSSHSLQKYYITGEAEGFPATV
The series is described as follows: Reporter assay of gene transcription activity, ERα. It counts as cell-based.

Series [4] addresses T1, ERα. The series is described as follows: Alkaline phosphatase. Format: cell-based.
Series [5] in a line: Single-dose pharmacokinetics, rat. It counts as in vivo. The conditions noted are these: Sprague-Dawley, serum.
A short description of series [6]: Human hepatocyte stability. It counts as in vitro ADME. The conditions noted are these: hepatocytes.
For series [7], the system named is CAMA-1 ESR1 Asp538Gly cells. The series is described as follows: CAMA-1 cell proliferation, ESR1 Asp538Gly. The conditions noted are these: Homo sapiens, CAMA-1, read-out: CAMA-1 cell prolif. pIC50 (converted). Format: cell-based.
The target of the next series is T2, ESR1 WT (Homo sapiens, UniProt P03372).
T2 sequence (P03372 1-595): T1 sequence (P03372 1-595)
The series is described as follows: AP. Format: cell-based.

In a further series the target is hERG ion channels (Homo sapiens, UniProt Q12809). The series is described as follows: hERG patch clamp assay. The conditions noted are these: at 30 μM. Format: cell-based.
A further series addresses T3, BCRP (Homo sapiens, UniProt Q9UNQ0).
T3 sequence (Q9UNQ0 1-655): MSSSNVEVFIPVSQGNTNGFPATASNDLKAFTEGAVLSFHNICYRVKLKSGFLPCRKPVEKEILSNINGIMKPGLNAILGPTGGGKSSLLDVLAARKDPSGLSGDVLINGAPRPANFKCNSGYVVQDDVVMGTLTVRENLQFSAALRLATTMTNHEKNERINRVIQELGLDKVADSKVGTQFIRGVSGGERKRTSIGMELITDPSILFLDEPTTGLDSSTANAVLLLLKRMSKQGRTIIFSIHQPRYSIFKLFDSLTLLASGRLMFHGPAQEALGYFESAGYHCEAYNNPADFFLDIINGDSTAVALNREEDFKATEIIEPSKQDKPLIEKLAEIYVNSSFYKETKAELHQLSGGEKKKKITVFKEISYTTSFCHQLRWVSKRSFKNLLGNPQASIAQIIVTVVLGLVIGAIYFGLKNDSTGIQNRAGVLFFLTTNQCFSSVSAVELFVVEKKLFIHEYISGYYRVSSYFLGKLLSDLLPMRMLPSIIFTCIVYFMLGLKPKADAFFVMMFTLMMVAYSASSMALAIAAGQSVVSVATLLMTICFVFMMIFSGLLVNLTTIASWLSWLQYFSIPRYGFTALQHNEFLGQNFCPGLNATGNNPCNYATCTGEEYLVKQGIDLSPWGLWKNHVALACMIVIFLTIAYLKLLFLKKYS
The series is described as follows: BCRP inhibition, membrane vesicles. It counts as in vitro ADME.

Sequence of ERβ (Q92731 whole entry, species assumed): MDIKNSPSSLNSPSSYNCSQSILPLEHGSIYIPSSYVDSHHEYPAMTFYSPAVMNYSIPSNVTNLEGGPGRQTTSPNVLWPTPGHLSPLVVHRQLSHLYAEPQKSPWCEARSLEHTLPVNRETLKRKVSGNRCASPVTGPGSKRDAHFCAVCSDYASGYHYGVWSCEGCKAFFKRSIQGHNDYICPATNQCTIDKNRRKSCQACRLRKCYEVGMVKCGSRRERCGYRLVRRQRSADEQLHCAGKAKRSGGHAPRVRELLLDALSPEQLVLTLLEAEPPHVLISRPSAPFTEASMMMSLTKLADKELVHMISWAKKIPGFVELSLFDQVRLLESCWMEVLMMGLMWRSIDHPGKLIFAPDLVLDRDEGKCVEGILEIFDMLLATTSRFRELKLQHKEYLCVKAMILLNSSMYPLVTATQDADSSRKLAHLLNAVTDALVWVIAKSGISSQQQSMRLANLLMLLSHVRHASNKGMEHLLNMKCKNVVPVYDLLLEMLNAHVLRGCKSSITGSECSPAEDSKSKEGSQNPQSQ
Sequence of CYP 3A4 (P08684 whole entry): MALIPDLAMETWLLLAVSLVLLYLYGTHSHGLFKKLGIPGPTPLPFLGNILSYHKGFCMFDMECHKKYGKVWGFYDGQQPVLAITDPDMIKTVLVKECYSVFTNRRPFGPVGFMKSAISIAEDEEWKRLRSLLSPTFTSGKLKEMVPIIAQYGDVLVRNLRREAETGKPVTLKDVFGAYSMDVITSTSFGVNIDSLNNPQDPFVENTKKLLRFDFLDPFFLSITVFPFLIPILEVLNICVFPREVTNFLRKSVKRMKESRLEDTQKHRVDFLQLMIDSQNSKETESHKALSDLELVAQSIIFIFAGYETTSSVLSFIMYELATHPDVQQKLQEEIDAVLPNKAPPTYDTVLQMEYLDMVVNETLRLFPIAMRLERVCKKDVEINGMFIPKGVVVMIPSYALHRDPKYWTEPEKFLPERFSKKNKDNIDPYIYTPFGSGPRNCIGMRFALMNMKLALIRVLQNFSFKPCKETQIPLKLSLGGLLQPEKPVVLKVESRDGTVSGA
Sequence of hERG ion channels (Q12809 whole entry): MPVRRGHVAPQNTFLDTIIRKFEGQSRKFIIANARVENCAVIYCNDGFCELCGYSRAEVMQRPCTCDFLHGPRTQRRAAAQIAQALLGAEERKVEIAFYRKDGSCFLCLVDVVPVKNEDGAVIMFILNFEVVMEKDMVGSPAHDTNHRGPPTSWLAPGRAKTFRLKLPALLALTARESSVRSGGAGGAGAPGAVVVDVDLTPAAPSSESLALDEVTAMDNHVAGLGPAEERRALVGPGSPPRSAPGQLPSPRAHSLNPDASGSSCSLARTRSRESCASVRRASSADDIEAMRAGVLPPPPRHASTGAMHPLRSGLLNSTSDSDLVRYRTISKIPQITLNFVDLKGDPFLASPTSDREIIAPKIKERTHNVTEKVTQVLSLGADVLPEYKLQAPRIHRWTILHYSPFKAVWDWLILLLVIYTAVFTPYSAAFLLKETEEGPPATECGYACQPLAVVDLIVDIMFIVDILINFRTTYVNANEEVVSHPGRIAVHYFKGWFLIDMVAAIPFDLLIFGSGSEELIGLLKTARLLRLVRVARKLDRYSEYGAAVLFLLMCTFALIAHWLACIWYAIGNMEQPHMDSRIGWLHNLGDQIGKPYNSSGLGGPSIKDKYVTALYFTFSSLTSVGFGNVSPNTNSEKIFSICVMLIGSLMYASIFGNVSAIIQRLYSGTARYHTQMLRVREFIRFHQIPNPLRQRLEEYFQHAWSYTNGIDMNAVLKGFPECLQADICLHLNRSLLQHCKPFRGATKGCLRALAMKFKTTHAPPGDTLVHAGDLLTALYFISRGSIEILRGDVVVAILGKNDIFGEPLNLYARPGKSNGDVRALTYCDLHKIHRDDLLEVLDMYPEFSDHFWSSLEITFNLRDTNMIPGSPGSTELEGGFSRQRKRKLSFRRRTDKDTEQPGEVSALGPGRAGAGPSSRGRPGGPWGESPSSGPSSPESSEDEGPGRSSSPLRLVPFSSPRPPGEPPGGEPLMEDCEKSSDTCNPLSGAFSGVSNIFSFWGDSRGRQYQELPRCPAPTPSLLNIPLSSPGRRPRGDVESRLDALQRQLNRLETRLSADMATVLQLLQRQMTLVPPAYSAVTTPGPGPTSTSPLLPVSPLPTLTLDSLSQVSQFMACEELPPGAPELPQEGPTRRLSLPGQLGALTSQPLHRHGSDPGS

On to `CCCN1CC(Oc2ccc([C@@H]3c4[nH]c5ccccc5c4C[C@@H](C)N3CC(C)(C)F)cc2)C1` [compound 21, (1R,3R)-2-(2-Fluoro-2-methylpropyl)-3-methyl-1-(4-((1-propylazetidin-3-yl)oxy)phenyl)-2,3,4,9-tetrahydro-1H-pyrido[3,4-b]indole], for which the IC50 was more than 3160 nM at ERβ (Erβ pIC50, agonist mode, agonist mode); 3.16 nM on ERβ (Erβ pIC50, antag. mode, antag. mode); more than 10000 nM against CYP 3A4; more than 3160 nM at ERα [3] (ERα pIC50, agonist mode, agonist mode); 1 nM on ERα [3] (ERα pIC50, antag. mode, antag. mode); 3.16 nM at ERα [4]. In addition, the IC50 in series [7] is 6.31 nM; at ESR1 WT it was 2.51 nM; against BCRP, more than 5000 nM. Besides, the “Plasma free drug percentage” value in [1] is given as 0.13%. Further, the fraction unbound at 4 h, 1 µM in [2] came to 0.0006. Moreover, the AUC was found to be 454 ng·h/mL in [5] (iv, 0.5 mg/kg) and 2590 ng·h/mL in [5] (po, 5 mg/kg). Besides, the Cmax is 313 ng/mL in [5] (iv, 0.5 mg/kg) and 138 ng/mL in series [5] (po, 5 mg/kg). The Vd in [5] (iv, 0.5 mg/kg) turned out to be 8 L/kg. In [5] (iv, 0.5 mg/kg), this compound gave a clearance of 13.3 mL/min/kg. Further, the half-life in series [5] (iv, 0.5 mg/kg) was 7 h; in series [5] (po, 5 mg/kg), 16 h; in series [6] it was 2.17 h. Besides, the Tmax in series [5] (po, 5 mg/kg) amounted to 1.5 h. Also, the bioavailability in [5] (po, 5 mg/kg) was found to be 55%. The same compound showed a hepatocyte CLint in series [6] of 10.7 µL/min/1e6 cells. In addition, the hERG inhibition result at hERG ion channels is reported as “did not inhibit”.
